Source: ChEMBL document CHEMBL3886859, “Pyridine derivatives” (2016)

Legend:
[1] = target: Procathepsin L (Homo sapiens, UniProt P07711); test: (§1) Enzyme Inhibition Assay: Enzyme activity is measured by observing the increase in fluorescence intensity caused by cleavage of a peptide substrate containing a fluorophore whose emission is quenched in the intact peptide.Assay buffer: 100 mM potassium phosphate pH 6.5, EDTA-Na 5 mM, Triton X-100 0.001%, DTT 5 mM.Enzymes (all at 1 nM): human and mouse Cathepsin S, Cat K, Cat B, Cat L.Substrate (20 μM): Z-Val-Val-Arg-AMC, except for Cat K which uses Z-Leu-Arg-AMC (both from Bachem).Z=Benzyloxycarbonyl.AMC=7-Amino-4-Methyl-Coumarin.DTT=dithiothreitol.Final volume: 100 μL.Excitation 360 nm, Emission 465 nm.Enzyme is added to the substance dilutions in 96-well microtitre plates and the reaction is started with substrate. Fluorescence emission is measured over 20 minutes, during which time a linear increase is observed in the absence of inhibitor.
[2] = target: Cathepsin S (Homo sapiens, UniProt P25774); test: as §1
Sequence of Cathepsin S (P25774 whole entry): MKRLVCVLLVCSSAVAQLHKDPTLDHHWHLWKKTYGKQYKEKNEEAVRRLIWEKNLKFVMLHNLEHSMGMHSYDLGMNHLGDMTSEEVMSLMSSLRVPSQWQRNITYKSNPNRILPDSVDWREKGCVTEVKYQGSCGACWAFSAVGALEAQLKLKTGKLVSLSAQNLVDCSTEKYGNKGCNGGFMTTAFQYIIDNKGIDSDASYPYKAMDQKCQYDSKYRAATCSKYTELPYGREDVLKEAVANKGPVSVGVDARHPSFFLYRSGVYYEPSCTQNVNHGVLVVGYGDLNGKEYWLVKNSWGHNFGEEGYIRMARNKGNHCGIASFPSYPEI

Sequence of Procathepsin L (P07711 whole entry): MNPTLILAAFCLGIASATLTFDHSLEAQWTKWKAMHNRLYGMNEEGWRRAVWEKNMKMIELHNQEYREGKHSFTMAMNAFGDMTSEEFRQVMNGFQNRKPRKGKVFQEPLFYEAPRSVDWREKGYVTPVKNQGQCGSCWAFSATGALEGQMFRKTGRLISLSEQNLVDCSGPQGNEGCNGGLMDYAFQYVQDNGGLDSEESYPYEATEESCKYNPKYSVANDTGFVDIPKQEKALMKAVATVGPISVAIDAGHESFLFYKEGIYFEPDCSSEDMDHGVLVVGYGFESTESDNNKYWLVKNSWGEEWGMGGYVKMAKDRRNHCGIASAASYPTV

IC50 [1]	IC50 [2]	Compound
56.8 nM	0.543 nM	N#CC1(NC(=O)[C@@H]2C[C@@H](S(=O)(=O)c3cc(C(F)(F)F)ccc3Cl)CN2C(=O)C2(c3ncc(Cl)cc3F)CC2)CC1
> 25000 nM	1030 nM	N#CC1(NC(=O)[C@@H]2C[C@@H](Sc3ncc(C(F)(F)F)cc3Cl)CN2C(=O)C2(c3ncc(Cl)cc3F)CC2)CC1
72.6 nM	0.474 nM	N#CC1(NC(=O)[C@@H]2C[C@@H](S(=O)(=O)c3ccc(Br)cc3Cl)CN2C(=O)C2(c3ncc(Cl)cc3F)CC2)CC1
